{"source": "patent US20130190217A1", "about": "“ESTER OILS” (PANOLIN Holding AG, priority 2010, published 2013)", "key": {"[1]": {"experiment": "NOACK vaporization (physical vaporization according to Noack, 250° C. for 1 h)", "assay_type": "physicochemical", "text": "Trimethylolpropane esters (TMP-C8/C10) are commercially available from various suppliers and have been used for comparative purposes."}, "[2]": {"experiment": "Flashpoint", "assay_type": "physicochemical"}, "[3]": {"conditions": "taken from safety data sheets; cited from earlier work"}, "[4]": {"conditions": "UBA number 4203; cited from earlier work"}, "[5]": {"experiment": "Density", "assay_type": "physicochemical", "conditions": "Table 3"}, "[6]": {"experiment": "Pour point", "assay_type": "physicochemical", "text": "In addition, the inventive ester oils have a high flashpoint, such that use at relatively high oil sump and component temperatures is possible without risk. In addition, the pour point of the ester oils is relatively low, as a result of which the esters are also usable at low temperatures. For a liquid product, the pour point denotes the temperature at which it is still just free-flowing in the course of cooling. Thus, the inventive ester oils can be used within a broad temperature range."}, "[7]": {"experiment": "Cold Crank Simulator according to ASTM D5293", "assay_type": "physicochemical", "description": "(§1) For the C12D13 esters and the C10D13 esters, three independently prepared samples were included in each case. For the C9D13 ester and for the D5C18 ester, one sample was analyzed in each case. The “CCS−25° C. [mPas]” and “CCS−20° C. [mPas]” columns each contain figures for the “Cold Crank Simulator” according to the standard ASTM D5293 at −25° C. and −20° C. The HTHS150° C. [mPas] column indicates what is called the “High-Temperature High-Shear Viscosity” (HTHS) at elevated temperature."}, "[8]": {"experiment": "Kinematic viscosity", "assay_type": "physicochemical"}, "[9]": {"conditions": "taken from safety data sheets; cited from earlier work", "remark": "listed apart in the source"}, "[10]": {"experiment": "High-Temperature High-Shear Viscosity (HTHS)", "assay_type": "physicochemical", "conditions": "150° C.", "description": "as §1"}, "[11]": {"experiment": "Viscosity index (VI)", "assay_type": "physicochemical"}, "[12]": {"conditions": "Table 3, listed as C12D13 (1st sample)"}, "[13]": {"conditions": "Table 3, listed as C12D13 (2nd sample)"}, "[14]": {"conditions": "Table 3, listed as C12D13 (3rd sample)"}}, "data": [{"smiles": "CC(C)CCCCCCCCCCOC(=O)CCCCCCCCCCC(=O)OCCCCCCCCCCC(C)C", "note": "[C12D13, di(isotridecyl)dodecanedioate]", "values": [{"measurement": "NOACK", "setting": "[1]; Table 2, base oil", "value": 5.7, "unit": "%"}, {"measurement": "NOACK", "setting": "[1]; Table 3, 250° C. for 1 h, listed as C12D13 (1st sample)", "value": 2.4, "unit": "%"}, {"measurement": "NOACK", "setting": "[1]; Table 3, 250° C. for 1 h, listed as C12D13 (2nd sample)", "value": 4.3, "unit": "%"}, {"measurement": "NOACK", "setting": "[1]; Table 3, 250° C. for 1 h, listed as C12D13 (3rd sample)", "value": 2.9, "unit": "%"}, {"measurement": "Flashpoint", "setting": "[2]; Table 2, base oil", "value": 277, "unit": "°C"}, {"measurement": "Flashpoint", "setting": "[2]; [12]", "value": 276, "unit": "°C"}, {"measurement": "Flashpoint", "setting": "[2]; [13]", "value": 277, "unit": "°C"}, {"measurement": "Flashpoint", "setting": "[2]; [14]", "value": 261, "unit": "°C"}, {"measurement": "Aquatic toxicity OECD 202", "setting": "[3]", "value": 880, "unit": "mg/L"}, {"measurement": "water endangerment class (WGK)", "setting": "[4]", "value": "WGK 1"}, {"measurement": "Density", "setting": "[5]; listed as C12D13 (1st sample)", "value": 0.9051, "unit": "g/mL"}, {"measurement": "Density", "setting": "[5]; listed as C12D13 (2nd sample)", "value": 0.9020, "unit": "g/mL"}, {"measurement": "Density", "setting": "[5]; listed as C12D13 (3rd sample)", "value": 0.904, "unit": "g/mL"}, {"measurement": "Pour point", "setting": "[6]; Table 2, base oil", "value": "−57", "unit": "°C"}, {"measurement": "Pour point", "setting": "[6]; [12]", "value": "−48", "unit": "°C"}, {"measurement": "Pour point", "setting": "[6]; [13]", "value": "−57", "unit": "°C"}, {"measurement": "Pour point", "setting": "[6]; [14]", "value": "−51", "unit": "°C"}, {"measurement": "CCS−20° C.", "setting": "[7]; listed as C12D13 (1st sample)", "value": 1910, "unit": "mPas"}, {"measurement": "CCS−20° C.", "setting": "[7]; listed as C12D13 (2nd sample)", "value": 1700, "unit": "mPas"}, {"measurement": "CCS−25° C.", "setting": "[7]; listed as C12D13 (1st sample)", "value": 3210, "unit": "mPas"}, {"measurement": "CCS−25° C.", "setting": "[7]; listed as C12D13 (3rd sample)", "value": 3230, "unit": "mPas"}, {"measurement": "η40° C.", "setting": "[8]; Table 2, 40° C.", "value": 42.0, "unit": "mm^2/s"}, {"measurement": "η100° C.", "setting": "[8]; Table 2, 100° C.", "value": 7.5, "unit": "mm^2/s"}, {"measurement": "η40° C.", "setting": "[8]; Table 3, 40° C., listed as C12D13 (1st sample)", "value": 40.47, "unit": "mm^2/s"}, {"measurement": "η40° C.", "setting": "[8]; Table 3, 40° C., listed as C12D13 (2nd sample)", "value": 42.0, "unit": "mm^2/s"}, {"measurement": "η40° C.", "setting": "[8]; Table 3, 40° C., listed as C12D13 (3rd sample)", "value": 41.2, "unit": "mm^2/s"}, {"measurement": "η100° C.", "setting": "[8]; Table 3, 100° C., listed as C12D13 (1st sample)", "value": 7.573, "unit": "mm^2/s"}, {"measurement": "η100° C.", "setting": "[8]; Table 3, 100° C., listed as C12D13 (2nd sample)", "value": 7.5, "unit": "mm^2/s"}, {"measurement": "η100° C.", "setting": "[8]; Table 3, 100° C., listed as C12D13 (3rd sample)", "value": 7.6, "unit": "mm^2/s"}, {"measurement": "η150° C.", "setting": "[8]; Table 3, 150° C.", "value": 3.45, "unit": "mm²/s"}, {"measurement": "Aquatic toxicity OECD 203", "setting": "[9]", "value": ">1000", "unit": "mg/L"}, {"measurement": "HTHS150° C.", "setting": "[10]", "value": 2.7, "unit": "mPa·s"}, {"measurement": "VI", "setting": "[11]; Table 2, base oil", "value": 158}, {"measurement": "VI", "setting": "[11]; [12]", "value": 158}, {"measurement": "VI", "setting": "[11]; [13]", "value": 147}, {"measurement": "VI", "setting": "[11]; [14]", "value": 156}]}]}
